Measured values published in patent US20120122870A1, “Treatment Of Ischemia-Reperfusion Injury” (MUSC FOUNDATION FOR RESEARCH DEVELOPMENT, priority 2009, published 2012).

What was measured:
[1] = test system: endogenous SK activity in MDA-MB-231 cells; assay: Cellular S1P production (endogenous SK activity) in MDA-MB-231 cells; assay type: cell-based; conditions: Homo sapiens, MDA-MB-231, MDA-MB-231 cells incubated with 20 μg/mL of compound; percentage of S1P production inhibited
Method in brief: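 MDA-MB-231 cells treated with 20 μg/mL compound and assayed for endogenous SK activity, reported as % inhibition of S1P production. For IC50, cells received varying compound concentrations and S1P produced was measured; IC50 is the concentration giving 50% inhibition.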

recombinant human SK = target: T1, recombinant human SK (Homo sapiens, UniProt Q9NYA1); assay: Recombinant human SK activity assay ([3H]sphingosine to [3H]S1P); assay type: biochemical; conditions: Human SK incubated with 6 μg/mL of compound; percentage of SK activity inhibited
T1 construct: GST (glutathione-S-transferase) (N); made in house; host or cells: bacteria (pGEX bacterial expression vector)
T1 sequence (Q9NYA1 whole entry): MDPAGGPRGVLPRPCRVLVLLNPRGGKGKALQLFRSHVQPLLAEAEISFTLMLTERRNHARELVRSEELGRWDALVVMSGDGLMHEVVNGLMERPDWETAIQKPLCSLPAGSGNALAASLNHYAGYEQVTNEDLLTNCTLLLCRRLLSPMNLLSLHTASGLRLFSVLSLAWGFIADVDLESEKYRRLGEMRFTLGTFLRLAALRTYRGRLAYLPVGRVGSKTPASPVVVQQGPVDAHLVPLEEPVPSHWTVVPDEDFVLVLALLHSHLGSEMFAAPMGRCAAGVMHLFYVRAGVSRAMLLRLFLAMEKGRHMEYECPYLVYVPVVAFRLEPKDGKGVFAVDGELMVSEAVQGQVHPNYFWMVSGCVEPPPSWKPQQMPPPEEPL
Experimental: SK activity is measured by incubation of the recombinant SK with [^3H]sphingosine and 1 mM ATP under defined conditions, followed by extraction of the assay mixture with chloroform:methanol under basic conditions. […] Radioactivity in aliquots of the aqueous phase is then quantified as a measure of [^3H]S1P formation.
Human SK was incubated with 6 μg/mL of the indicated compounds, and then assayed for activity as described above. Values in the column labeled “Recombinant SK (% inhibition)” represent the percentage of SK activity that was inhibited. MDA-MB-231 cells were incubated with 20 μg/mL of the indicated compounds and then assayed for endogenous SK activity as indicated above. Values in the column labeled “Cellular S1P (% inhibition)” represent the percentage of S1P production that was inhibited. Additionally, MDA-MB-231 cells were treated with varying concentration of certain compounds and the amount of S1P produced by the cells was determined. Values in the column labeled “Cellular S1P IC50 (μM)” represent the concentration of compound required to inhibit the production of S1P by 50%. ND=not determined.

Compound	inhibition at 20 µg/mL [1]	inhibition at 6 µg/mL (recombinant human SK)	Recombinant SK (% inhibition) (recombinant human SK)
O=C(Nc1cccc(CO)c1)C12CC3CC(C1)CC(c1ccc(Cl)cc1)(C3)C2 [A9, 3-(4-Chloro-phenyl)-adamantane-1-carboxylic acid (3-hydroxymethyl-phenyl)-amide]	40%	84%	–
N#CCc1ccc(NC(=O)C23CC4CC(CC(C4)C2)C3)cc1 [A10, Adamantane-1-carboxylic acid (4-cyanomethyl-phenyl)-amide]	9%	3%	–
N#CCc1ccc(NC(=O)C23CC4CC(C2)CC(c2ccc(Cl)cc2)(C4)C3)cc1 [A11, 3-(4-Chloro-phenyl)-adamantane-1-carboxylic acid (4-cyanomethyl-phenyl)-amide]	0%	17%	–
O=C(NCc1ccccc1)C12CC3CC(C1)CC(c1ccc(Cl)cc1)(C3)C2 [A12, 3-(4-Chloro-phenyl)-adamantane-1-carboxylic acid benzylamide]	3%	36%	–
CC(C)(C)c1ccc(CNC(=O)C23CC4CC(C2)CC(c2ccc(Cl)cc2)(C4)C3)cc1 [A13, 3-(4-Chloro-phenyl)-adamantane-1-carboxylic acid 4-tert-butyl-benzylamide]	0%	78%	–
CC(NC(=O)C12CC3CC(C1)CC(c1ccc(Cl)cc1)(C3)C2)c1ccc(Br)cc1 (stereo not drawn) [A29, 3-(4-Chloro-phenyl)-adamantane-1-carboxylic acid [1-(4-bromo-phenyl)-ethyl]-amide]	0%	55%	–
O=C(NCc1ccc(O)c(O)c1)C12CC3CC(CC(C3)C1)C2 [A35, Adamantane-1-carboxylic acid 3,4-dihydroxy-benzylamide]	0%	87%	–
O=C(NCCc1ccccc1)C12CC3CC(C1)CC(c1ccc(Cl)cc1)(C3)C2 [A37, 3-(4-Chloro-phenyl)-adamantane-1-carboxylic acid phenethyl-amide]	36%	24%	–
O=C(NCCc1ccc(F)cc1)C12CC3CC(C1)CC(c1ccc(Cl)cc1)(C3)C2 [A38, 3-(4-Chloro-phenyl)-adamantane-1-carboxylic acid [2-(4-fluoro-phenyl)-ethyl]-amide]	34%	40%	–
O=C(NCCc1ccc(Br)cc1)C12CC3CC(C1)CC(c1ccc(Cl)cc1)(C3)C2 [A39, 3-(4-Chloro-phenyl)-adamantane-1-carboxylic acid [2-(4-bromo-phenyl)-ethyl]-amide]	26%	19%	–
O=C(NCCc1ccc(O)cc1)C12CC3CC(C1)CC(c1ccc(Cl)cc1)(C3)C2 [A40, 3-(4-Chloro-phenyl)-adamantane-1-carboxylic acid [2-(4-hydroxy-phenyl)-ethyl]-amide]	52%	100%	–
O=C(NCc1ccc(Oc2ccccc2)cc1)C12CC3CC(C1)CC(c1ccc(Cl)cc1)(C3)C2 [A41, 3-(4-Chloro-phenyl)-adamantane-1-carboxylic acid 4-phenoxy-benzylamide]	23%	–	67%
O=C(NCCc1ccc(O)c(O)c1)C12CC3CC(CC(C3)C1)C2 [A43, Adamantane-1-carboxylic acid [2-(3,4-dihydroxy-phenyl)-ethyl]-amide]	0%	0%	–
O=C(NCCCc1ccccc1)C12CC3CC(C1)CC(c1ccc(Cl)cc1)(C3)C2 [A48, 3-(4-Chloro-phenyl)-adamantane-1-carboxylic acid (3-phenyl-propyl)-amide]	14%	36%	–
CN1CCC(NC(=O)C23CC4CC(CC(C4)C2)C3)CC1 [A50, Adamantane-1-carboxylic acid (1-methyl-piperidin-4-yl)-amide]	44%	0%	–
